Earlier results on 1 compound are cited in patent US10597315B2, “Method of disinfection of drinking water using ozone and silver cations” (KAUNO TECHNOLOGIJOS UNIVERSITETAS, priority 2015, dated 2020).

The conditions of series [1]: World Health Organization.

Regarding `[Ag+]` [silver], the “Ingested silver absorbed in the intestine” value is 10% and the “Ingested silver excreted from the body via the faeces” value is 90%. In addition, the “Silver in drinking water tolerable without any risk to health” value in series [1] is “up to 0.1 mg/kg”.
